What was measured:
PKC = assay: cell-free PKC binding assay, isoform not given; parameters: species or system human
Procedure: (§1) Because a prerequisite for PKC pathway involvement is binding to PKC, compounds were initially evaluated for PKC affinity in a cell-free competitive binding assay with tritiated phorbol dibutyrate ([^3H]-PDBu). Assays were performed with representative members of both the conventional (PKCα) and novel (PKCδ) PKC families. Subsequently, compounds were assayed for PKC activation in living cells using an isoform translocation assay.
(§2) Assay PKC was prepared by dissolving a 4 μg aliquot of the indicated recombinant human PKC isoform (Invitrogen) into 11.6 mL of PKC binding assay buffer (this amount is sufficient for two assays). The diluted PKC was stored on ice for immediate use.
(§3) Triplicate data points were obtained for each analog concentration. For each data point, 280 μL of “Master Mix” Solution and 20 μL of analog compound at a specified concentration were added to a polypropylene tube. […] Maximal ^3H-PDBu binding was assessed in triplicate by substitution of the analog compound with 20 μL DMSO. The solutions were vortexed to mix, incubated at 37° C. for 10 min, and incubated on ice for at least 30 min prior to filtration. Using a Brandel Harvester, the assay contents from each polypropylene tube were vacuum-filtered through polyethylenimine-soaked filters, washing with rinsing buffer (3×) and drying first under vacuum for 5 min and then under ambient conditions for ≥2 h. The resulting filters had circular perforations for each data point, which were removed with forceps and placed in a scintillation vial. Scintillation vials were filled with Bio-Safe II scintillation fluid (5 mL) and measured for radioactivity using a Beckman LS 6000SC scintillation counter. Counts per minute (cpm) were averaged for each triplicate dilution. The data were plotted—cpm vs. log(concentration)—using Prism® by GraphPad Software and an IC50 was determined using that program's built-in one-site competition least squares regression function. Ki values were calculated using the equation: Ki=IC50/(1+([3H−PDBu]/Kd)). The Kd of ^3H-PDBu for PKC isoforms was measured separately via saturation binding experiments under identical conditions.

PKCα = biological target: T1, PKCα (Homo sapiens, UniProt P17252); assay: cell-free competitive PKC binding assay with [3H]-phorbol dibutyrate; details: competition with [3H]-PDBu, recombinant human PKC isoform
T1 construct: purchased Invitrogen
Procedure: as §1
(§4) To a 50 mL polypropylene tube was added Tris-HCl (pH 7.4, 1 M, 1 mL), KCl (1 M, 2 mL), CaCl2) (0.1 M, 30 μL), and bovine serum albumin (BSA, 40 mg, Sigma-Aldrich). This mixture was diluted to 20 mL with deionized H2O and mixed gently. The buffer was stored on ice until use.
(§5) For every two assays, 3.5 mg phosphatidylserine (Avanti Polar Lipids, porcine, 25 mg/mL CHCl3 solution) was concentrated by removing chloroform under a stream of nitrogen followed by reduced pressure. The solid PS was suspended as vesicles in freshly prepared PKC binding assay buffer (3.5 mL) by sonicating six times for 30 sec, with a 30 sec rest between sonications (Branson Sonifier 250, power=2, 50% duty cycle). The resulting milky cloudy mixture (1 mg/mL) was stored on ice until use.
as §2
(§6) ^3H-PDBu (American Radiolabeled Chemicals, Inc.; 1 mCi/mL acetone solution; specific activity: 20 Ci/mmol) was diluted […] with DMSO. The resulting 500 nM stock solution was further diluted with DMSO to 30 nM.
(§7) Compound dilutions were prepared by serially diluting from a chosen “high” concentration by factors of 3 or 4.
(§8) To a polypropylene tube was added 3.3 mL of 1 mg/mL PS vesicles solution, 11 mL of PKC isoform solution, and 1.1 mL of 30 nM ^3H-PDBu solution were added. The resulting solution was vortexed to mix and stored on ice.
(§9) Materials: • Glass-fiber filters (Whatman GF/B) were prepared by soaking them in a solution of aqueous polyethyleneimine (10% by vol, 18 mL) in deionized water (600 mL) for ≥1 h. • 500 mL “rinsing buffer” of 20 mM Tris, pH 7.4 was cooled on ice for the duration of the incubation period and for the remainder of the assay.
as §3

PKCδ = biological target: T2, PKCδ (Homo sapiens, UniProt Q05655); assay: as above; details: competition with [3H]-PDBu, recombinant human PKC isoform
T2 construct: purchased Invitrogen
T2 sequence (Q05655 whole entry, canonical isoform): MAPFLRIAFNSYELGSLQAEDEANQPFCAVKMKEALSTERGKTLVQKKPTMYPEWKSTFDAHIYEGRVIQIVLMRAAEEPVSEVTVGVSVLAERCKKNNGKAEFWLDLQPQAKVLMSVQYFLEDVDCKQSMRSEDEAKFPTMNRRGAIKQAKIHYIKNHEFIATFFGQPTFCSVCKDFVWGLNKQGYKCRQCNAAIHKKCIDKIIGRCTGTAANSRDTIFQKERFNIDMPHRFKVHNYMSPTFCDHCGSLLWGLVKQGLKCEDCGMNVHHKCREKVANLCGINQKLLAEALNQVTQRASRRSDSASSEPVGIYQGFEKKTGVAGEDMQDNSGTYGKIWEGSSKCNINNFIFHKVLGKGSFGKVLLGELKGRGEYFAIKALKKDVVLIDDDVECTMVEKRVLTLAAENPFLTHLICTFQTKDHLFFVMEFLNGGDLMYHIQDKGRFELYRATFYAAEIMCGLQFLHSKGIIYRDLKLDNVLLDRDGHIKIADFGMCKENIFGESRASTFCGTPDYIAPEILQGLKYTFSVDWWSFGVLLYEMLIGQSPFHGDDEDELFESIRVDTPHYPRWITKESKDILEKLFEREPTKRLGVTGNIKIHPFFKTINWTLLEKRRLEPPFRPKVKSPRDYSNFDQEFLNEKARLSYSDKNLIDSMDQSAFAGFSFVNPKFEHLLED
Procedure: as §1, §4, §5, §2, §6, §7, §8, §9
Triplicate data points were obtained for each analog concentration. For each data point, 280 μL of “Master Mix” Solution and 20 μL of analog compound at a specified concentration were added to a polypropylene tube. […] Maximal ^3H-PDBu binding was assessed in triplicate by substitution of the analog compound with 20 μL DMSO. The solutions were vortexed to mix, incubated at 37° C. for 10 min, and incubated on ice for at least 30 min prior to filtration. Using a Brandel Harvester, the assay contents from each polypropylene tube were vacuum-filtered through polyethylenimine-soaked filters, washing with rinsing buffer (3×) and drying first under vacuum for 5 min and then under ambient conditions for ≥2 h. The resulting filters had circular perforations for each data point, which were removed with forceps and placed in a scintillation vial. Scintillation vials were filled with Bio-Safe II scintillation fluid (5 mL) and measured for radioactivity using a Beckman LS 6000SC scintillation counter. Counts per minute (cpm) were averaged for each triplicate dilution. The data were plotted—cpm vs. log(concentration)—using Prism® by GraphPad Software and an IC50 was determined using that program's built-in one-site competition least squares regression function. […] The Kd of ^3H-PDBu for PKC isoforms was measured separately via saturation binding experiments under identical conditions.

PKCδ-GFP fusion protein = assay: PKCδ-GFP translocation assay in living CHO-k1 cells (confocal microscopy); type: cell-based, Chinese hamster
Procedure: as §1
Chinese hamster ovary factor K1 (CHO-k1, ATCC) cells were cultured in F-12 Kaighn's media (Hyclone, 10% fetal bovine serum, 1% penicillin/streptomycin added, referred to as F-12+/+ below) at 37° C. in an incubator (5% CO2). Cell cultures were maintained by splitting cells 1:3 when they reached ˜75-100% confluence (every 2-3 days) as follows:
1 mL of the cell suspension was then added to 9 mL of fresh F-12+/+ and the sample was sub-cultured until reaching confluence (˜2-3 days).
Cells were counted using a Countess II Automated Cell Counter (Fisher). The cell suspension was diluted to 240,000 cells/mL with fresh F-12+/+ and 2.5 mL of this diluted stock was added to one well in a 6-well plate. The cells were then cultured for 24 hours.
F-12+/+ was aspirated and cells were washed with F-12−/−. 2 mL of fresh F-12−/− was then added to each well, taking care not to disturb adherent cells. For each well of CHO-k1 cells, 12.5 μL Lipofectamine 2000 reagent (Invitrogen) was added to 250 μL Opti-MEM reduced serum media (Invitrogen) in a polypropylene tube and incubated for 20 minutes at RT. Meanwhile, for each well, 4 μg of PKCδ-GFP pDNA and 250 μL Opti-MEM reduced serum media was added to a separate polypropylene tube. 250 μL of the Lipofectamine 2000 suspension was added to the DNA suspension and the solution incubated for 30 minutes at RT. 500 μL of the Lipofectamine/DNA suspension was added to the respective wells of the 6-well plate. The cells were then incubated at 37° C. (5% CO2) for ˜24 hrs.
F-12+/+ was aspirated and cells were washed with F-12−/−. 2.4 mL of fresh F-12−/− was then added to each well, taking care not to disturb adherent cells. A 4 μg aliquot of PKCδ-GFP pDNA was added to PBS (pH 5.5, final volume 100 μL). 5.6 μL of DA 13:11 (2 mM stock in DMSO) was then added to the DNA solution, and the mixture was gently mixed (by flicking) for 20 seconds, at which point it was added directly to the respective wells of the 6-well plate. The cells were then incubated at 37° C. (5% C02) for ˜24 hrs.
After incubation, the media was aspirated and cells were washed with PBS (2.0 mL) and trypsinized (500 μL). The cell suspension was then diluted with 2.0 mL F-12+/+. 200 μL aliquots were added to 3 wells of a Lab-Tek II 4-well chambered coverglass slide (Fisher), producing 4 slides in total, each with three wells of cells. The cell suspension was directly diluted with 600 μL of additional F-12+/+. The resulting samples were incubated for ˜24 hrs. prior to imaging.
Fluorescent images were obtained using a Leica SP8 White Light Confocal microscope and the Leica AF software package. Prior to analysis, media was aspirated and 800 μL of PBS (Hyclone, without Ca^2+ or Mg^2+) supplemented with glucose (10 mM) was added to each well of the chambered coverglass slide. Bryostatin and bryostatin analogs were diluted to the appropriate concentration in 200 μL of 10 mM glucose in PBS. Cells were located for imaging and data was recorded for three wells in parallel, imaging at predetermined positions in each well using adaptive focus control. Cells were imaged at 30 second intervals following the addition of compound (set to t=0) for 20-40 minutes. Data were recorded at room temperature. Images were exported as .lif files and fluorescence intensity was analyzed using FIJI (NIH) software.

[1] = tested on: CD22 surface expression in JB cells; assay: CD22 surface expression assay, AIDS-NHL cell line JB; details: 1 nM or 10 nM, 48 hours
Procedure: (§10) AIDS-NHL cell lines were incubated in IF10 medium, consisting of IMDM medium (Life technologies) containing 10% fetal bovine serum (FBS, Omega Scientific), 100 units/mL of penicillin, and 100 μg/ml of streptomycin (Invitrogen). Cells were incubated at 37° C. in 5% CO2.
(§11) Cells were exposed to compound for the either 24 or 48 h before staining and flow cytometric analysis of receptor levels.
(§12) Cells in each well were washed with phosphate buffered saline (PBS) containing 2% FBS, then cells were centrifuged for 9 min at 233 xg and resuspended in 50 μL of a 1:1 dilution of phosphate buffered saline (PBS): Human AB serum (Sigma). […] Stained samples were stored at 4° C. Flow cytometry samples were analyzed using a FACSCelesta (BD Biosciences) flow cytometer and data were analyzed using FlowJo software (version 10).
(§13) Panel C: JB cells were incubated with 1 nM (left hand bars) or 10 nM (right hand bars) of compound for 48 hours. CD22 surface expression was then assayed by flow cytometry (n=6 biological replicates; data presented as mean values ±SE). Panel D: 2F7 cells were incubated with 1 nM (left hand bars) or 10 nM (right hand bars) of compound for 48 hours. CD22 surface expression was then assayed by flow cytometry (n=6 biological replicates; data presented as mean values ±SE).

[2] = tested on: CD22 surface expression in 2F7 cells; assay: CD22 surface expression assay, AIDS-NHL cell line 2F7; details: 1 nM or 10 nM, 48 hours
Procedure: as §10, §11, §12, §13

NALM6 tumor cells = assay: NSG mice with NALM6 tumor cells treated with CD22 CAR T cells plus bryostatin 1; details: NALM6 tumor cells day 0, CD22 CAR day 3, bryostatin 1 three times weekly for 2 weeks
Source text: Mice were imaged using IVIS™ technology and luciferin-D IP injections.

[3] = tested on: CD22 surface expression in NALM6 cells; assay: CD22 surface expression assay by flow cytometry; type: cell-based, human
Procedure: Cell cultures were maintained between 4×10^5 and 3×10^6 cells/mL according to vendor instructions.
Cell suspension from a confluent T75 flask (Fisher) was transferred to a 15 mL falcon tube and centrifuged at 1100 rpm for 7 minutes. […] Cells were counted using a Countess II Automated Cell Counter (Fisher). […] 199 μL of this stock was added to 24 wells (enough for triplicate measurements for 8 different experimental conditions) in a 96-well plate. […] 1 μL of DMSO or the appropriate stock solution of compound in DMSO was added to each well. Cells were incubated for 24 hours, at which point the cell suspensions were transferred to 1.5 mL Eppendorf tubes and diluted with 1.0 mL of PBS (Hyclone, without Ca^2+ or Mg^2+). Samples were centrifuged at 2000 rpm for 5 min at RT. […] Cells were sub-cultured between 2×10^5 and 3×10^6 cells/mL in 24-well plates for an additional 24 hrs-7 days, at which point CD22 surface expression was assayed by flow cytometry.
Cells from one well were counted using a Countess II Automated Cell Counter (Fisher). ˜200,000-300,000 cells from each well were added to 1.5 mL Eppendorf tubes containing PBS (final volume ˜1.2 mL). The cell suspensions were centrifuged at 1500 rpm for 7 minutes at 4° C. The supernatant was aspirated, and the cell pellet was resuspended in 99 μL of pre-chilled FACS buffer (0.5% w/v BSA in PBS). […] Samples were then diluted with an additional 1.0 mL of FACS buffer and centrifuged at 1500 rpm for 7 minutes at 4° C. […] Cells were stained with DAPI and CD22 surface expression was analyzed using the FACScan Analyzer at the Stanford Shared FACS Facility. Data analysis was performed using FlowJo and Microsoft Excel.

Row | Compound | binding affinity to PKC, in words (PKC) | Ki (PKCα) [nM] | Ki (PKCδ) [nM] | activity in the PKC translocation assay at 200 nM (PKCδ-GFP fusion protein; 200 nM) | cytosolic PKC translocated to the plasma membrane (PKCδ-GFP fusion protein; 1000 nM, at about 5 minutes) [%] | concentration* (minimum effective concentration required to induce translocation of PKC-GFP to the membrane) (PKCδ-GFP fusion protein; CHO-k1 cells) [nM] | % Translocation (PKCδ-GFP fusion protein; maximum translocation of PKCδ-GFP to the plasma membrane at the concentration printed in the same cell, CHO-k1 cells, SUW212: only brief translocation observed) [%] | upregulated CD22 surface expression [1] [fold] | upregulated CD22 surface expression [2] [fold] | durability of response to CD22 CAR T cell treatment (NALM6 tumor cells) | time for which increased CD22 surface expression was sustained following treatment ([3]; 10 nM for 24 hours, then washed out and sub-cultured) | increase in CD22 surface density ([3]; NALM6 cells incubated 24 hours, flow cytometry) [fold]
1 | CCCC=CC=CC(=O)OC1C(=CC(=O)OC)CC2CC(C(C)O)OC(=O)CC(O)CC3CC(OC(C)=O)C(C)(C)C(O)(CC4CC(OC(=O)CC56CC7CC(CC(C7)C5)C6)CC(C=CC(C)(C)C1(O)O2)O4)O3 (centres unmarked) [SUW209] | high affinity PKC binders | 1.6 | 3.5 | inactive | ~70 | 1000 | 60 | – | – | – | – | –
2 | CCCC=CC=CC(=O)OC1C(=CC(=O)OC)CC2CC(C(C)O)OC(=O)CC(O)CC3CC(OC(C)=O)C(C)(C)C(O)(CC4CC(=CC(=O)OC)CC(C=CC(C)(C)C1(O)O2)O4)O3 (centres unmarked) [SUW201] | – | 0.54 | – | – | – | – | – | ~2 | ~2 | – | – | –
3 | CCC/C=C/C=C/C(=O)O[C@H]1/C(=C/C(=O)OC)C[C@H]2C[C@H]([C@@H](C)O)OC(=O)C[C@H](O)C[C@@H]3C[C@H](OC(C)=O)C(C)(C)[C@](O)(C[C@@H]4C/C(=C/C(=O)OC)C[C@H](/C=C/C(C)(C)[C@]1(O)O2)O4)O3 [Bryostatin 1, reference compound] | single digit nanomolar binder | 0.8 | – | – | – | – | – | ~2 | ~2 | improves durability of response | up to 7 days | > 2
